Consider 5 compounds from patent US20260151370A1, “Nutritional composition for neurodegeneration and neurotrauma” (N.V. Nutricia, priority 2023, published 2026).

This experiment deals with PC12 neuronal cells. Nature of the experiment: Neurite outgrowth in NGF-differentiated PC12 neuronal cell cultures (Calcein-AM/Hoechst imaging). The experiment is classed as cell-based. How it is done: In order to assess the effects of nutritional components on axonal outgrowth and dendritic arborization underlying functional brain connectivity, the effects of nutrient supplementation on neurite outgrowth parameters in PC12 pheochromocytoma cells was investigated. PC12 neuronal cell model is one of the most widely used cell models for the study of neuronal differentiation. PC12 pheochromocytoma cells were grown in DMEM (Gibco), supplemented with 10% fetal bovine serum (FBS), penicillin (100 units/ml), and streptomycin (100 μg/ml) (Gibco), under a humidified atmosphere with 95% air and 5% CO2 at 37° C. Cells were seeded onto a collagen (0.01 mg/ml) coated 96-well plates at a density of 5000 cells/well and after 24 hours supplemented with medium containing 20 ng/ml nerve growth factor (NGF) with or without the components as defined in the present and in the following examples. Cell cultures were incubated at 37° C. in 5% CO2 and medium was replaced every 2-3 days. DHA and EPA were resuspended in absolute ethanol and diluted 5 times in fetal bovine serum. Other compounds were dissolved in DMEM. All compounds were purchased from Sigma (Zwijndrecht, The Netherlands). Supplementation of cells was performed in 6-fold in 96 wells plates. Neurite outgrowth of these conditions was compared to non-supplemented cells. After 48 hours of nutrient supplementation, cell bodies and neurites were stained using Calcein-AM stain (0.2 μg/ml) (Invitrogen, batch #C3100MP) and the nuclei were counterstained using Hoechst stain (1.2 μg/ml) (Thermo Scientific, batch #62249) in 100 μl culture medium per well and incubated for 20 min at 37° C. Subsequently, FITC and DAPI images (9 images per well, 6 wells per condition) were taken using an ImageXpress Micro Confocal high content imaging system (Molecular Devices). Neurite length was quantified using the neurite outgrowth module in MetaXpress. Image analysis was carried out using the neurite outgrowth analysis module in MetaXpress (Molecular Devices). The measurements taken from each well included the number of nuclei and the mean neurite outgrowth (μm) per cell. The data was normalized to and expressed as a relative percentage of the plate-averaged value of the vehicle-treated control wells.

The mark [1] stands for this setting: FIG. 8 plate: BA 200 μM, B2 0.25 μM, DHA 2.5 μM, D3 0.25 μM, PC 20 μM, alone or combined.
Where [2] appears, read: FIG. 9 first plate: B2 0.25 μM, D3 0.75 μM, PC 15 μM, BA 40 μM, alone or together with reference diet.
Where [3] appears, read: FIG. 4 plate: total 20 μM choline from chol-Cl, PC or both.
Where [4] appears, read: FIG. 1 plate: DHA 6.7 μM, EPA 10 μM, vitamin B2 1.25 μM, vitamin D3 0.25 μM, alone or combined, 48 hours, 20 ng/ml NGF.

In the case of `CCCC(=O)O` [BA, butyric acid], the “neurite outgrowth compared to control” value is given as “strongest effect on neurite outgrowth” (FIG. 7 plate: BA 200 μM); “increased neurite outgrowth in a dose-dependent manner” (FIG. 7 plate: BA 12.5, 25, 50, 100 and 200 μM). The “observed mean neurite outgrowth, percentage relative to control (100%)” value under setting [1] is “increased neurite outgrowth more than supplementation of vitamin B2 and D3 alone”; the “observed mean neurite outgrowth, percentage relative to control (100%)” value under setting [2] is “increased neurite outgrowth”.

For the compound `C[N+](C)(C)CCO.[Cl-]` [chol-Cl, choline-chloride], the “neurite outgrowth compared to control” value under setting [3] is given as “enhance neurite outgrowth”.

For `Cc1cc2nc3c(=O)[nH]c(=O)nc-3n(C[C@H](O)[C@H](O)[C@H](O)CO)c2cc1C` [vitamin B2, riboflavin], the “observed mean neurite outgrowth, percentage relative to control (100%)” value under setting [4] is “increased neurite outgrowth” and the “observed mean neurite outgrowth, percentage relative to control (100%)” value under setting [2] is listed as “increased neurite outgrowth”.

With `C=C1CC[C@H](O)C/C1=C/C=C1\CCC[C@]2(C)[C@@H]([C@H](C)CCCC(C)C)CC[C@@H]12` [vitamin D3, cholecalciferol], the “observed mean neurite outgrowth, percentage relative to control (100%)” value runs as follows: under setting [4], “increased neurite outgrowth”; under setting [2], “increased neurite outgrowth”.

Regarding phosphatidylcholine [PC], the “neurite outgrowth compared to control” value under setting [3] is “increases neurite outgrowth more than supplementation with 100 mole % chol-Cl”. For the same compound, the “observed mean neurite outgrowth, percentage relative to control (100%)” value is “increased neurite outgrowth more than supplementation with 100 mole % chol-Cl” (FIG. 5 plate: choline 20 μM (chol-Cl and/or PC), DHA 3.3 μM, B2 0.5 μM, D3 0.25 μM); “increased neurite outgrowth more than supplementation of vitamin B2 and D3 alone” under setting [1]; “increased neurite outgrowth” under setting [2].
